Reference: publication PMC3130898 (Molecular and biochemical parasitology, 2010)

Target: T1, Oligopeptidase B (OPB) (Leishmania major, UniProt Q4QHU7)
T1 sequence (Q4QHU7 1-731): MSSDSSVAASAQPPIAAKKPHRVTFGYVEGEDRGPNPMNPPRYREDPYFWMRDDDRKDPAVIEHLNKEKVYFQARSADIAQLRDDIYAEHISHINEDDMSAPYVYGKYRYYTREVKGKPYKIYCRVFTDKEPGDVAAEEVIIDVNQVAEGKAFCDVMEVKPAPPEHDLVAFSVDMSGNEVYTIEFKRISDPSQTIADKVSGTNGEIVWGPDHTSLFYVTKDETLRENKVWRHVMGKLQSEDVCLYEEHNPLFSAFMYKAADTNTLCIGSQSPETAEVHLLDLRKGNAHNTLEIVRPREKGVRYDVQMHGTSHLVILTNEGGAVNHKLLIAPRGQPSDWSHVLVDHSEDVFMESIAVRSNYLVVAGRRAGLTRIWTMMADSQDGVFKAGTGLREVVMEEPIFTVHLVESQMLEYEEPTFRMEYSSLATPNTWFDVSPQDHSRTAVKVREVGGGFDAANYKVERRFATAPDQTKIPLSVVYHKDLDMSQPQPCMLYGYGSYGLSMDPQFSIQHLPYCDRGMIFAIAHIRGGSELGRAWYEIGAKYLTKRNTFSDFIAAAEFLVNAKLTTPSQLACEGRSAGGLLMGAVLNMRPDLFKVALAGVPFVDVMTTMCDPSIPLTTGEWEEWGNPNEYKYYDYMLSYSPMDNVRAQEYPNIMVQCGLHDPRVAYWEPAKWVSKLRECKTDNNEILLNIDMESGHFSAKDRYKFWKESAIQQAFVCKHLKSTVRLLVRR
Assay: inhibition of Bz-R-AMC cleavage in live promastigotes
Type: cell-based

NCCc1ccc(S(=O)(=O)F)cc1 [AEBSF]
IC50: 14.4 µM
